Target: T1, Prostaglandin G/H synthase 1 (Ovis aries, UniProt P05979)
T1 sequence (P05979 whole entry): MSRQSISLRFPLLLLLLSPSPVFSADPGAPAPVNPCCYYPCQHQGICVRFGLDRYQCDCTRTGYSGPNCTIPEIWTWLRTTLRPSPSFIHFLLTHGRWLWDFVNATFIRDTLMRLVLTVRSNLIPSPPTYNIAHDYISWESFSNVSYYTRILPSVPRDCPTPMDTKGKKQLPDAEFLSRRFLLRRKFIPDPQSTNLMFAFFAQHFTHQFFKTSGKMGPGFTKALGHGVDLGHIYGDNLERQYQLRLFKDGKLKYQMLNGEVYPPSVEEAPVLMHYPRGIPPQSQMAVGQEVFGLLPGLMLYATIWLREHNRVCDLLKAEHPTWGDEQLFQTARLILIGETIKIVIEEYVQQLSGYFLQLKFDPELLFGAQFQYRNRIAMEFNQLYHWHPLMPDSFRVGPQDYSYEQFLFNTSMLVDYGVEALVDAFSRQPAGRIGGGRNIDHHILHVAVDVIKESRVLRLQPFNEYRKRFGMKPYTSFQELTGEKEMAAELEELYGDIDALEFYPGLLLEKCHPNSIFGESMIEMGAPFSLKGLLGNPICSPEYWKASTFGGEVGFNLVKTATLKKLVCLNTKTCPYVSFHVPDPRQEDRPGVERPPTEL
Test: In vitro inhibitory concentration against ovine Prostaglandin G/H synthase 1

SMILES: CC/C(=C\c1ccc(C)cc1)c1ccc(S(C)(=O)=O)cc1
- IC50: 0.03 µM

SMILES: CCCCCC/C(=C\c1ccccc1)c1ccc(S(C)(=O)=O)cc1
- IC50: > 100 µM

SMILES: CCC/C(=C\c1ccccc1)c1ccc(S(C)(=O)=O)cc1
- IC50: > 100 µM

SMILES: CC/C(=C\c1ccccc1)c1ccc(S(C)(=O)=O)cc1
- IC50: > 100 µM

SMILES: CCCCCCC/C(=C\c1ccccc1)c1ccc(S(C)(=O)=O)cc1
- IC50: > 100 µM

Reference: ChEMBL document CHEMBL1137874, “A new class of acyclic 2-alkyl-1,2-diaryl (E)-olefins as selective cyclooxygenase-2 (COX-2) inhibitors” (Bioorg Med Chem Lett, 2004)
